Measured values as given in patent US8410126B2, “Pyrimidine inhibitors of PKTK2” (Boehringer Ingelheim International GmbH, priority 2009, dated 2013).
pIC50: −log10 of the molar value.

Biological target: T1, PTK2 (Homo sapiens, UniProt Q05397)
T1 construct: purchased Invitrogen PV3832
Experiment: PTK2 enzyme test Assay 1 (DELFIA, poly-Glu-Tyr substrate, PT60 antibody)
Type: biochemical
Details: Assay 1 (values without *); 1 h pre-incubation, 50 μM ATP mix, final DMSO 2%
Description: This test uses active PTK2 enzyme (Invitrogen Code PV3832) and poly-Glu-Tyr (4:1, Sigma P-0275) as the kinase substrate. The kinase activity is detected through the phosphorylation of the substrate in a DELFIA™ assay. The phosphorylated substrate is detected with the europium-labelled phosphotyrosine antibody PT60 (Perkin Elmer, No.: AD00400).
In order to determine concentration-activity curves with PTK2-inhibitors the compounds are serially diluted in 10% DMSO/H2O and 10 μL of each dilution are placed in each well of a 96-well microtitre plate (clear plate with a U-shaped base, Greiner No. 650101) (the inhibitors are tested in duplicates) and mixed with 10 μL/well of PTK2 kinase (0.01 μg/well). PTK2 kinase has been correspondingly diluted beforehand with kinase dilution buffer (20 mM TRIS/HCl pH 7.5, 0.1 mM EDTA, 0.1 mM EGTA, 0.286 mM sodium orthovanadate, 10% glycerol with the addition of freshly prepared BSA (fraction V, 1 mg/mL) and DTT (1 mM)). The test compound and the PTK2 kinase are pre-incubated for 1 h at RT and shaken at 500 revolutions per min. The reaction is started by the addition of 10 μL/well poly (Glu,Tyr) substrate (25 μg/well poly (Glu, Tyr), 0.05 μg/well biotinylated poly (Glu,Tyr) dissolved in 250 mM TRIS/HCl pH 7.5, 9 mM DTT)—the final concentration of DMSO is 2%. Then 20 μL of ATP Mix (30 mM TRIS/HCl pH 7.5, 0.02% Brij, 0.2 mM sodium orthovanadate, 10 mM magnesium acetate, 0.1 mM EGTA, 1× phosphatase inhibitor cocktail 1 (Sigma, No.: P2850), 50 μM ATP (Sigma, No.: A3377; 15 mM stock solution)) are added. After 1 h of kinase reaction (the plates are shaken at 500 rpm), the reaction is stopped by the addition of 12 μL/well 100 mM EDTA, pH 8.0 and shaken for a further 5 min at RT (500 rpm). 55 μL of the reaction mixture are transferred into a streptavidin plate (Strepta Well High Bind (transparent, 96-well) made by Roche, No.: 11989685001) and incubated for 1 h at RT (shaking at 500 rpm). Then the microtitre plate is washed three times with 200 μL/well D-PBS (Invitrogen, No. 14190). 100 μL of a solution containing DELFIA Eu-N1 Anti-Phosphotyrosine PT60 antibody (Perkin Elmer, No.: AD0040, diluted 1:2000 in DELFIA test buffer (Perkin Elmer, No.: 1244-111)) is then added and the mixture is incubated for 1 h at RT (shaking at 500 rpm). Then the plate is washed three times with 200 μL/well DELFIA washing buffer (Perkin Elmer, No.: 1244-114), 200 μL/well strengthening solution (Perkin Elmer, No.: 1244-105) are added and the mixture is incubated for 10 min at RT (shaking at 300 rpm).
The time-delayed europium fluorescence is then measured in a microtitre plate reader (VICTOR^3, Perkin Elmer). […] Wells that contain test buffer instead of enzyme are used as a control of the background kinase activity.
The IC50 values are determined from analyses of the concentration activity by iterative calculation with the aid of a sigmoid curve analysis algorithm (FIFTY, based on GraphPAD Prism Version 3.03) with a variable Hill coefficient.

T1 sequence (Q05397 whole entry): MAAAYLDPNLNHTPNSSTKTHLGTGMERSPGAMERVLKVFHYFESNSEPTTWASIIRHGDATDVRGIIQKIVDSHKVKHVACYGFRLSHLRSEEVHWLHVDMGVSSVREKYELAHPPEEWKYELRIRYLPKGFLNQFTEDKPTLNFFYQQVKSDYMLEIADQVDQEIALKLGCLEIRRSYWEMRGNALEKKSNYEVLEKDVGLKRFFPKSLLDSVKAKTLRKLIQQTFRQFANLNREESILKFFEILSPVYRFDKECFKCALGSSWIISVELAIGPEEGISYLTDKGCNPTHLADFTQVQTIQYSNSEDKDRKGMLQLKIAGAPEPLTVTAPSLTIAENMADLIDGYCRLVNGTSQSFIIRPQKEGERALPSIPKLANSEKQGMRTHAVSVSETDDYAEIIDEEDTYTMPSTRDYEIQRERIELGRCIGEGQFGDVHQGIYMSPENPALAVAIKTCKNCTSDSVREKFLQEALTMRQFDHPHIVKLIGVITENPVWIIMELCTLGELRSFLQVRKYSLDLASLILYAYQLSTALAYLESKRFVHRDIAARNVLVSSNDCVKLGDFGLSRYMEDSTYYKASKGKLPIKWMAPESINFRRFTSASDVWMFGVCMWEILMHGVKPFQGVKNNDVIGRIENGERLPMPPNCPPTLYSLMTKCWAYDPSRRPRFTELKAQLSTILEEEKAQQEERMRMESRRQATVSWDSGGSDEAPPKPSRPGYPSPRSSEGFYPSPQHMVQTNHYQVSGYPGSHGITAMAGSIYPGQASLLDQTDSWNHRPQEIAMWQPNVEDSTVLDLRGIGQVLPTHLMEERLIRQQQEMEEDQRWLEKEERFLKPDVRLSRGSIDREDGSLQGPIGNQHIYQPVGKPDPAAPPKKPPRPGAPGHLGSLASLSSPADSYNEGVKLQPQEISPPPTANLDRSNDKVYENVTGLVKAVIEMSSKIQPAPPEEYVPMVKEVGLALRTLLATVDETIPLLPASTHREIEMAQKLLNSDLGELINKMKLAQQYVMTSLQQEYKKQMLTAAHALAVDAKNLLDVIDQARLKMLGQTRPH

Row | pIC50 | Structure (SMILES)
1 | 8.52 | COc1cc(C(=O)NC2CCC(N3CCOCC3)CC2)ccc1Nc1ncc(C(F)(F)F)c(N[C@@H]2Cc3ccccc3[C@H]2NC(C)=O)n1 (stereo partly shown) [Example I-19]
2 | 8.52 | COCCN1CCC(NC(=O)c2ccc(Nc3ncc(C(F)(F)F)c(N[C@@H]4Cc5ccccc5[C@H]4NC(C)=O)n3)c(OC)c2)CC1 [Example I-13]
3 | 9.00 | COc1cc(C(=O)NC2CCC(N3CCN(CC4CC4)CC3)CC2)ccc1Nc1ncc(C(F)(F)F)c(N[C@@H]2Cc3ccccc3[C@H]2N(C)S(C)(=O)=O)n1 (stereo partly shown) [Example I-7]
4 | 8.70 | CNC(=O)c1ccc(Nc2ncc(C(F)(F)F)c(N[C@@H]3Cc4ccccc4[C@H]3NC(C)=O)n2)c(OC)c1 [Example I-18]
5 | 8.70 | COc1cc(C(=O)NC2CCCN(C)C2)ccc1Nc1ncc(C(F)(F)F)c(N[C@@H]2Cc3ccccc3[C@H]2NC(C)=O)n1 (stereo partly shown) [Example I-14]
6 | 8.40 | COc1cc(C(=O)NC2CCOCC2)ccc1Nc1ncc(C(F)(F)F)c(N[C@@H]2Cc3ccccc3[C@H]2NC(C)=O)n1 [Example I-15]
7 | 8.40 | COc1cc(C(=O)NC2CCC(N3CCN(CC4CC4)CC3)CC2)ccc1Nc1ncc(C(F)(F)F)c(N[C@@H]2Cc3ccccc3[C@H]2NC(C)=O)n1 (stereo partly shown) [Example I-12]

Second part, the compound before the results:

Row | Structure (SMILES) | pIC50
8 | COc1cc(C(=O)NC2CCN(C)CC2)ccc1Nc1ncc(C(F)(F)F)c(N[C@@H]2Cc3ccccc3[C@H]2NS(C)(=O)=O)n1 [Example I-8] | 8.70
9 | COc1cc(Nc2ncc(C(F)(F)F)c(N[C@@H]3Cc4ccccc4[C@H]3N(C)S(C)(=O)=O)n2)ccc1NC(C)=O [Example I-92] | 8.70
10 | COc1cc(C(=O)NCCN(C)C)ccc1Nc1ncc(C(F)(F)F)c(N[C@@H]2Cc3ccccc3[C@H]2NC(C)=O)n1 [Example I-20] | 9.00
11 | COc1cc(C(=O)NC2CCOCC2)c(F)cc1Nc1ncc(C(F)(F)F)c(N[C@@H]2Cc3ccccc3[C@H]2N(C)S(C)(=O)=O)n1 [Example I-50] | 8.10
12 | CONC(=O)c1ccc(Nc2ncc(C(F)(F)F)c(N[C@@H]3Cc4ccccc4[C@H]3NC(C)=O)n2)c(OC)c1 [Example I-17] | 8.70
13 | CNCc1ccc(Nc2ncc(C(F)(F)F)c(N[C@@H]3Cc4ccccc4[C@H]3NS(C)(=O)=O)n2)c(OC)c1 [Example I-9] | 8.70
14 | COc1cc(C(=O)NCCN(C)C)c(F)cc1Nc1ncc(C(F)(F)F)c(N[C@@H]2Cc3ccccc3[C@H]2N(C)S(C)(=O)=O)n1 [Example I-48] | 9.00
15 | COc1cc(C(=O)NC2CCCN(C)C2)ccc1Nc1ncc(C(F)(F)F)c(N[C@@H]2Cc3ccccc3[C@H]2N(C)S(C)(=O)=O)n1 (stereo partly shown) [Example I-6] | 9.02
16 | COc1cc(N2CCN(C)CC2)ccc1Nc1ncc(C(F)(F)F)c(N[C@@H]2Cc3ccccc3[C@H]2N(C)S(C)(=O)=O)n1 [Example I-39, N-((1R,2R)-2-{2-[2-methoxy-4-(4-methyl-piperazin-1-yl)-phenylamino]-5-trifluoromethyl-pyrimidin-4-ylamino}-indan-1-yl)-N-methyl-methanesulphonamide] | 8.52
17 | COc1cc(CN2CCOCC2)ccc1Nc1ncc(C(F)(F)F)c(N[C@@H]2Cc3ccccc3[C@H]2NC(C)=O)n1 [Example I-38] | 8.70
18 | COc1cc(N2CCN(CC3CC3)CC2)ccc1Nc1ncc(C(F)(F)F)c(N[C@@H]2Cc3ccccc3[C@H]2N(C)S(C)(=O)=O)n1 [Example I-56] | 8.52
19 | COc1cc(Nc2ncc(C(F)(F)F)c(N[C@@H]3Cc4ccccc4[C@H]3N(C)S(C)(=O)=O)n2)ccc1C(=O)NC1CCN(C)CC1 [Example I-64] | 9.12
20 | COCCNC(=O)c1ccc(Nc2ncc(C(F)(F)F)c(N[C@@H]3Cc4ccccc4[C@H]3NC(C)=O)n2)c(OC)c1 [Example I-16] | 8.70
21 | COc1cc(N2CCN(CC(=O)N(C)C)CC2)ccc1Nc1ncc(C(F)(F)F)c(N[C@@H]2Cc3ccccc3[C@H]2N(C)S(C)(=O)=O)n1 [Example I-40] | 8.52
22 | COc1cc(C(=O)NCCN(C)C)ccc1Nc1ncc(C(F)(F)F)c(N[C@@H]2Cc3ccccc3[C@H]2N(C)S(C)(=O)=O)n1 [Example I-52] | 9.00
